Laboratory results published in EP0306845A2, “Medicinal preparation containing certain derivatives of 6-mercaptopurine, use of these derivatives of 6-mercaptopurine, process for the preparation of the medicinal preparation and some derivatives of 6-mercaptopurine and process for their preparation” (HOECHST AKTIENGESELLSCHAFT, priority 1987, dated 1989).

System: Friend-Leukämie-Virus
Test: In vivo test in mice infected with Friend leukaemia virus (retrovirus model; spleen weight)
Design: species or system Maus
Settings: for Wirkung im Vergleich zu Suramin: summary in words of the two experiments of the table
Text: Da für die HIV-Infektion des Menschen kein geeignetes Infektionsmodell bei Labortieren existiert, muß bei der Prüfung von Chemotherapeutika auf Infektionen mit anderen Retroviren zurückgegriffen werden. Sowie die Hemmung der Virusreplikation in vivo aufgrund einer spezifischen Blockierung der RT (= Reverse Transkriptase)-Aktivität untersucht wird, erscheint die Wahl eines solchen Ersatzmodelles gerechtfertigt. Im vorliegenden Fall wurde die Infektion der Maus mit dem Friend-Leukämie-Virus gewählt.
Dazu wurden normale Labormäuse (NMRI = Naval Medical Research Institute) durch intravenöse Injektion mit Friend-Virus enthaltendem Mäuseserum infiziert. Bei den unbehandelten Kontrolltieren entwickelte sich als Symptom der Infektion innerhalb von zwei Wochen eine deutliche Vergrößerung von Milz und Leber. Die Behandlung erfolgte über 10 Tage, beginnend 48 Stunden nach der Infektion. Am 14. Versuchstag wurden die tiere durch Luxation der Halswirbel getötet und geöffnet. Die Milz wurde entnommen und gewogen. Als Meßparameter der therapeutischen Wirksamkeit wurde das Milzgewicht der behandelten Tiere mit dem der unbehandelten Infektionskontrolle in Relation gesetzt.
Während bei uninfizierten ausgewachsenen Labormäusen (20 - 24 g Körpergewicht) die Milz weniger als 1 % des Körpergewichtes wog, erreichte bei infizierten Tieren die Milz am Ende des Versuchs bis zu etwa 10 % des Körpergewichtes. […] Suramin ist die Verbindung der Formel: [drawing 14]

| Compound | Wirkung im Vergleich zu Suramin | further results |
| --- | --- | --- |
| 6-Mercapto-9-[1,3-bis-(isopropoxy)-propyl-2-oxymethyl]-purin [Beispiel 2] | gegenüber dem Suramin Vorteile besitzen | – |
| 6-Mercapto-9-[(1-hydroxy-3-isopropoxy-2-propoxy)methyl]-purin [Beispiel 3] | mit Suramin vergleichbar | – |
| OC[C@H]1O[C@@H](n2cnc3c(S)ncnc32)[C@H](O)[C@@H]1O [(1), 6-Mercapto-purin-9-D-ribosid] | gegenüber dem Suramin Vorteile besitzen | – |
| Nc1nc(S)c2ncn([C@@H]3O[C@H](CO)[C@@H](O)[C@H]3O)c2n1 [(2), 2-Amino-6-mercaptopurin-9-D-ribosid] | – | Relat Milzgewicht in % vom Körpergewicht (Versuch 1 (Virus-Verdünnung 1:5000), NMRI mice, 10 x 1,0 mg/Maus i.p., spleen weighed on day 14): 0,5 % vom Körpergewicht |
| Cc1ccc(C(=O)Nc2ccc(S(=O)(=O)O)c3cc(S(=O)(=O)O)cc(S(=O)(=O)O)c23)cc1NC(=O)c1cccc(NC(=O)Nc2cccc(C(=O)Nc3cc(C(=O)Nc4ccc(S(=O)(=O)O)c5cc(S(=O)(=O)O)cc(S(=O)(=O)O)c45)ccc3C)c2)c1 [Suramin, reference compound] | – | Milzwachstum (infected mice, treatment with the comparison preparation, mostly statistically significant (P 0,05)): Verringerung des Milzwachstums |
